System: IPOHE (Ipomoea hederacea)
Experiment: Post-emergence action against IPOHE
Format: in vivo
Description: The herbicidal activity of the active substances or active substance mixtures was evaluated visually from the treated variants in comparison with untreated control variants. In this connection, damage to and development of all plant parts above ground was included. The evaluation was carried out according to a percentage scale (100% action=all plants dead; 50% action=50% of the plants and green plant parts dead; 0% action=no recognizable action=as untreated control plot).
Seeds or root pieces of mono- and dicotyledonous weeds are placed in sandy clay soil in pots, covered with earth and secured in a greenhouse under good growing conditions (temperature, air humidity, water supply). Approximately three weeks after sowing, the test plants are treated with the compositions according to the invention. The compositions according to the invention formulated as wettable powders or as emulsion concentrates are sprayed, in spray application, on to the green plant parts in different dosages with a water application rate of 600 to 800 l/ha (corrected). Immediately up to a few days after application, the test receptacles accumulate water over the ground surface by up to 30 mm. With the water application (submerged application), on the other hand, the ground in the closed test receptacle is already covered with the paddy water up to 30 mm at the time of the application. The formulated active substances are here added directly to the paddy water. After an exposure time of the test plants in the greenhouse of an additional 3 to 4 weeks under optimum growing conditions, the effect of the preparations is evaluated visually in comparison with untreated controls. […] In this connection, actions of the combinations according to the invention which exceed the formal sum of the actions of the herbicides when applied individually are frequently observed. The values observed for the tests show, with suitable low dosages, an action of the combinations which lies above the expected values according to Colby.
If the observed activity values already exceed the formal sum of the values for the tests with individual applications, then they likewise exceed the expected value according to Colby, which is calculated according to the following formula and is likewise regarded as an indication of synergy (cf. S. R. Colby in Weeds, 15 (1967), pp. 20 to 22):
In this connection: • A, B=action of the component A or B in percent at a dosage of a or b grams ai/ha. • E=expected value in % at a dosage of a+b grams ai/ha.
The abbreviation IPOHE is the harmful plant Ipomoea hederacea.

[1] = dosage 50 g/ha, visual rating vs untreated control

COc1cc(OC)nc(NC(=O)NS(=O)(=O)c2c(C3=NOCC(C)O3)c(Cl)nn2C)n1 (centres unmarked) [B21, 3-chloro-N-[(4,6-dimethoxypyrimidin-2-yl)carbamoyl]-1-methyl-4-(5-methyl-5,6-dihydro-1,4,2-dioxazin-3-yl)-1H-pyrazole-5-sulfonamide]
Action against IPOHE [1]: 15%

CS(=O)(=O)c1ccc(C(=O)C2C(=O)CCCC2=O)c(Cl)c1COCC(F)(F)F [tembotrione]
Action against IPOHE [1]: 40%

Cc1ccc2c(c1)[C@H](Nc1nc(N)nc(C(C)F)n1)[C@@H](C)C2 (some centres unmarked) [B7, indaziflam]
Action against IPOHE (dosage 25 g/ha): 25%

CCCc1ccc2nc(Cl)c(S(=O)(=O)NC(=O)Nc3nc(OC)cc(OC)n3)n2n1 [B14, propyrisulfuron]
Action against IPOHE [1]: 30%

COc1cnc(OC)n2nc(NS(=O)(=O)c3c(OCC(F)F)cccc3C(F)(F)F)nc12 [B12, penoxsulam]
Action against IPOHE (dosage 15 g/ha): 20%

CC(C)N(C(=O)n1cnn(-c2ccc(Cl)cc2Cl)c1=O)c1ccc(F)cc1F [B9, ipfencarbazone]
Action against IPOHE [1]: 25%

C#CCN(C)c1c(C#N)cnn1-c1nn2c(c1Cl)CCCC2 [B15, pyraclonil]
Action against IPOHE (dosage 75 g/ha): 30%

Cn1nc(C(F)(F)F)c(CS(=O)(=O)C2=NOC(C)(C)C2)c1OC(F)F [B18, pyroxasulfone]
Action against IPOHE (dosage 75 g/ha): 15%

CC(C)c1nn(C(=O)NC(C)(C)C)c(=O)n1N [B1, amicarbazone]
Action against IPOHE (dosage 125 g/ha): 20%

COc1cc(OC)nc(NC(=O)NS(=O)(=O)Nc2ccccc2C(=O)N(C)C)n1 [B11, orthosulfamuron]
Action against IPOHE (dosage 30 g/ha): 40%

Nc1nc(C2CC2)nc(C(=O)[O-])c1Cl.[K+] [B4, aminocyclopyrachlor]
Action against IPOHE [1]: 35%

CC(C)N(C)S(=O)(=O)NC(=O)c1cc(-n2c(=O)cc(C(F)(F)F)n(C)c2=O)c(F)cc1Cl [B20, saflufenacil]
Action against IPOHE (dosage 10 g/ha): 45%

C[C@@H](Oc1ccc(Oc2nc3ccc(Cl)cc3o2)cc1)C(=O)N(C)c1ccccc1F [B10, metamifop]
Action against IPOHE (dosage 75 g/ha): 15%

COc1cc(OC)n2nc(NS(=O)(=O)c3c(C(F)(F)F)ccnc3OC)nc2n1 [B19, pyroxsulam]
Action against IPOHE (dosage 15 g/ha): 20%

Cc1nn(C)c(O)c1C(=O)c1ccc(C(F)(F)F)cc1S(C)(=O)=O [B16, pyrasulfotole]
Action against IPOHE (dosage 25 g/ha): 50%

CCc1cc(C)cc(CC)c1-c1c(OC(=O)C(C)(C)C)n2n(c1=O)CCOCC2 [B13, pinoxaden]
Action against IPOHE (dosage 30 g/ha): 15%

COCc1cccc(C(O)c2nc(OC)cc(OC)n2)c1NS(=O)(=O)C(F)F (centres unmarked) [B17, pyrimisulfan]
Action against IPOHE [1]: 20%

Nc1cc(Cl)nc(C(=O)O)c1Cl [B2, aminopyralid]
Action against IPOHE (dosage 75 g/ha): 30%

COc1cc(OC)nc(NC(=O)NS(=O)(=O)Nc2ccccc2C(=O)C2CC2)n1 [B6, cyclosulfamuron]
Action against IPOHE [1]: 20%

COCC(=O)OC(c1ncccc1S(=O)(=O)NC(=O)Nc1nc(OC)cc(OC)n1)C(C)F (centres unmarked) [B8, flucetosulfuron]
Action against IPOHE [1]: 20%

Reference: patent US8492313B2, “Synergistic herbicidal combinations comprising tembotrione” (Bayer Cropscience AG, priority 2009, dated 2013)
